Source: the NIST ThermoML archive (doi:10.1021/je900643r)

Key:
[1] = xn = mol fraction of the nth substance listed; conditions: 298.15 K; for surface tension liquid-gas: Drop volume; for mass density: 101 kPa, Liquid
[2] = 298.15 K; for surface tension liquid-gas: Drop volume; for mass density: 101.33 kPa, Liquid

Cc1ccc(C)cc1 [1,4-dimethylbenzene] + CCCCCC
[1]
Conditions	mass density [kg/m3]	surface tension liquid-gas [mN/m]
x2 = 0.0393	848.42	–
x2 = 0.0535	–	26.84
x2 = 0.0718	–	26.58
x2 = 0.0869	838.63	–
x2 = 0.1265	–	25.76
x2 = 0.1341	–	25.66
x2 = 0.1535	824.96	–
x2 = 0.208	813.78	–
x2 = 0.3063	793.59	–
x2 = 0.3083	–	23.45
x2 = 0.3397	–	23.1
x2 = 0.3524	784.21	–
x2 = 0.399	–	22.47
x2 = 0.4333	767.75	–
x2 = 0.467	–	21.81
x2 = 0.4867	756.93	–
x2 = 0.492	–	21.59
x2 = 0.5267	–	21.29
x2 = 0.5404	746.02	–
x2 = 0.5836	737.32	–
x2 = 0.6034	–	20.67
x2 = 0.638	726.41	–
x2 = 0.6394	–	20.39
x2 = 0.6877	–	20.07
x2 = 0.6903	715.94	–
x2 = 0.7826	–	19.41
x2 = 0.7872	696.69	–
x2 = 0.8126	–	19.22
x2 = 0.8297	688.25	–
x2 = 0.8798	–	18.79
x2 = 0.8952	675.28	–
x2 = 0.9417	666.19	–

Cc1ccc(C)cc1 [1,4-dimethylbenzene]
[2]
Conditions	mass density [kg/m3]	surface tension liquid-gas [mN/m]
–	856.51	27.7

CCCOC(=O)CC [propyl propanoate]
[2]
Conditions	mass density [kg/m3]	surface tension liquid-gas [mN/m]
–	875.53	24.1

CCCCCC [hexane]
[2]
Conditions	mass density [kg/m3]	surface tension liquid-gas [mN/m]
–	654.7	17.91
